Among the data in ChEMBL document CHEMBL6083182, “Development of Peptide Paratope Mimics Derived from the Anti-ROR1 Antibody and Long-Acting Peptide-Drug Conjugates for Targeted Cancer Therapy” (J Med Chem, 2024) are Kd, Activity and Drug uptake values, retold here.

The target of data set [1] is T1, Inactive tyrosine-protein kinase transmembrane receptor ROR1 (Homo sapiens, UniProt Q01973). As to the kind of experiment: Binding affinity to N-terminal His/GST-tagged recombinant human ROR1 (453 to 783 residues) extracted from baculovirus infected insect cells assessed as dissociation constant by SPR analysis. A general note: Surface plasmon resonance follows binding to a sensor surface in real time, without labels.
T1 sequence (Q01973 whole entry, the tested form may be a part): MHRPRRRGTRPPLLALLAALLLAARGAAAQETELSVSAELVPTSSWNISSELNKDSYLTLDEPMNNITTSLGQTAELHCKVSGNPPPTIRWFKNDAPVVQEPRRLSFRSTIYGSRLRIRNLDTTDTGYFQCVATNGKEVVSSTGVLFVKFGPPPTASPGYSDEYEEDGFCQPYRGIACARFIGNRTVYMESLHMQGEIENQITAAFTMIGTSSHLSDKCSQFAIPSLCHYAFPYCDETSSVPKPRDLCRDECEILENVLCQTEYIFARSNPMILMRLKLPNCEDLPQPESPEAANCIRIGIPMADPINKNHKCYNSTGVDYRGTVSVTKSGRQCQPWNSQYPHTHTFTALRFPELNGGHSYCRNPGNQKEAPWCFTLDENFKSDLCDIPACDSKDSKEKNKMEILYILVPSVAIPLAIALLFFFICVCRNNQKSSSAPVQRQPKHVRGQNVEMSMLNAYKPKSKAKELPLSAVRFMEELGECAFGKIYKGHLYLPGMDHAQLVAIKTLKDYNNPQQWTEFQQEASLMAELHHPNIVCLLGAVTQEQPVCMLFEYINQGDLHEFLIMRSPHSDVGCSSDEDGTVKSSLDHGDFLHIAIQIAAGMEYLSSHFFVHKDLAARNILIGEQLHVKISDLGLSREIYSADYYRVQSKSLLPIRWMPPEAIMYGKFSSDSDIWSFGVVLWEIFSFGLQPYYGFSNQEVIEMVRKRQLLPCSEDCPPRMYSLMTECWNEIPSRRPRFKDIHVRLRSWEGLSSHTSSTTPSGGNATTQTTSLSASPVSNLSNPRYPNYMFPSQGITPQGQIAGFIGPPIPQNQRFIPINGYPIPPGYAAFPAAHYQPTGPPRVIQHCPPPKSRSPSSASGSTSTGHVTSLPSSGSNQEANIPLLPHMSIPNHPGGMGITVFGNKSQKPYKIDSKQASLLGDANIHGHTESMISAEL

Data set [2] concerns the target T1, Inactive tyrosine-protein kinase transmembrane receptor ROR1. The data set can be described thus: Binding affinity to ROR1 positive human MDA-MB-231 cells at 10 uM administered as FITC-labeled compound and measured after 30 mins by Hoechst 33342 staining based confocal fluorescence microscopic analysis. In kind it is cell-based.
In another data set the test system is MCF7. As to the kind of experiment: Binding affinity to ROR1 negative human MCF7 cells at 10 uM administered as FITC-labeled compound and measured after 30 mins by Hoechst 33342 staining based confocal fluorescence microscopic analysis. In kind it is functional, cell-based.
Data set [3] is described as follows: Drug uptake in ROR1 positive human MDA-MB-231 cells administered as FITC-labeled compound and measured after 30 to 120 mins by Hoechst 33342 staining based confocal fluorescence microscopic analysis. In kind it is ADME, cell-based. As to conditions: time 30-120 min.
Data set [4] can be described thus: Drug penetration in human MDA-MB-231 cell spheroids assessed as increase in penetration rate at 10 uM administered as FITC-labeled compound and measured at 0.5 hrs by dual-color in vivo high-speed two-photon imaging system. In kind it is ADME. As to conditions: mda-mb-231, 0.5 h.
Data set [5] in a line: Drug penetration in human MDA-MB-231 cell spheroids assessed as fluorescence penetration rate at 10 uM administered as FITC-labeled compound and measured at 1 hrs by dual-color in vivo high-speed two-photon imaging system. The settings on record: mda-mb-231, 1 h. In kind it is ADME.
The species named for the next data set is Homo sapiens. As to the kind of experiment: Binding affinity to CD16A (unknown origin) by SPR analysis.
The nature of data set [6]: Drug uptake in BALB/c nude mouse tumor xenografted with human MDA-MB-231 cells assessed as increase in fluorescence signal administered as indocyanine green dye conjugate and measured after 0.5 hrs by invivo imaging analysis. The format is ADME, tissue-based, Neoplasm. As to conditions: in vivo.
Data set [7] can be described thus: Drug uptake in BALB/c nude mouse tumor xenografted with human MDA-MB-231 cells assessed as increase in fluorescence signal administered as indocyanine green dye conjugate and measured after 1 hrs by ex-vivo imaging analysis. In kind it is ADME, tissue-based, Neoplasm.
Data set [8] can be described thus: Drug uptake in BALB/c nude mouse liver xenografted with human MDA-MB-231 cells assessed as increase in fluorescence signal administered as indocyanine green dye conjugate and measured after 1 hrs by ex-vivo imaging analysis. The format is ADME, tissue-based. On the technique in general: In xenograft studies the graft and the host belong to different species.
Data set [9] can be described thus: Drug uptake in BALB/c nude mouse kidney xenografted with human MDA-MB-231 cells assessed as increase in fluorescence signal administered as indocyanine green dye conjugate and measured after 1 hrs by ex-vivo imaging analysis. The format is ADME, tissue-based.
A short description of data set [10]: Drug distribution in BALB/c nude mouse tumor xenografted with human MDA-MB-231 cells assessed as increase in fluorescence signal administered as indocyanine green dye conjugate and measured after 1 hrs by DAPI staining based immunofluorescence analysis. As to conditions: in vivo. In kind it is ADME, tissue-based, Neoplasm.

Activity calls are given as the source filed them. The calls are words filed in the database; no cut-off is given here.

In the case of H-SDINDRQIPGYSTYWGDF-NH2, the Kd in [1] is 1.57 nM. Further, the outcome in data set [2] was Active. The result with MCF7 was inactive. Also, the Drug uptake result in data set [3] is reported as “Active”; in [4], “Active”; in [5], ~ 100%; in [6], “Active”; in data set [7] it was “Active”; in data set [8] it was “Active”. The Drug uptake entry in data set [9] and in data set [10] was “Active” each time. Moreover, in the data set listed under Homo sapiens, the Activity result was “Not active; Abnormal Binding Affinity Curves Observed”.

In general, Kd refers to the constant that tells how readily two partners part at equilibrium.
